Legend:
[1] = tested on: WT MEFs; test: cells
Excerpt: Next, it was visually examined if MASM7 could induce mitochondrial fusion in MEFs, using mitochondrial aspect ratio (mitochondrial length/width, reflecting fusion) as a readout. […] (FIG. 5).

[2] = tested on: MFN1/MFN2 DKO MEFs; settings: 1 μM, 2 h
Protocol: Mitochondrial respiration. Mitochondrial oxygen consumption rates (OCR) were assessed using a XF24 Analyzer (Seahorse Biosciences, Billerica Mass., USA). […] OCR was normalized to cell number or total protein content per well for each condition tested. […] Data are expressed as Mean±SEM, OCR from untreated control for each condition; using n=3-5 individual experiments with n=3-5 replicates for each group tested.

[3] = tested on: Farage cells; test: TMRE mitochondrial membrane potential in Farage cells
Excerpt: (§1) TMRE staining was used as readout. […] CellROX was used to evaluate ROS levels.

[4] = tested on: WT MEFs; test: Mitochondrial respiration (Seahorse OCR) in WT MEFs; settings: 1 μM, 2 h
[5] = tested on: MEFs; test: Caspase-3/7 activation assay in MEFs; format: cell-based; settings: 5 μM, 24 h
Protocol: Cells (5×10^3 cells/well) were seeded in a 96-well white plate and treated with MASM7 (5 μM), doxorubicin (1 μM) or vehicle (0.05% DMSO). Caspase 3/7 activation was measured after 24 h by addition of the Caspase-Glo 3/7 chemiluminescence reagent according to the manufacturer's protocol (Promega). Luminescence was detected by a […] microplate reader (TECAN).

[6] = tested on: MEFs; test: Cell viability assay (CellTiter-Glo) in MEFs; format: cell-based; settings: 24 h
Protocol: Cells (5×10^3 cells/well) were seeded in a 96-well white plate and treated with serial dilutions of MASM7 or vehicle (0.1% DMSO). Cell viability was assayed after 24 h by addition of CellTiter-Glo reagent according to the manufacturer's protocol (Promega). Luminescence was measured using a F200 PRO microplate reader (TECAN). Viability assays were performed in at least triplicate and the data normalized to vehicle-treated control wells. Dilutions of MASM7 were performed using a TECAN D300e Digital Dispenser from 10 mM stocks.

[7] = tested on: lymphoma cells; test: Viability of lymphoma cells
Excerpt: as §1

[8] = tested on: Farage cells; test: Caspase 3 activation in Farage cells
Excerpt: as §1

[9] = tested on: Farage cells; test: ROS levels (CellROX) in Farage cells
Excerpt: as §1

[10] = tested on: MEFs; test: Staurosporine-induced apoptosis (active caspase 3) in MEFs; format: cell-based; settings: co-treated with staurosporine (STS)
Protocol: Transfected HEK 293T or MEFs were washed with once PBS and fixed with 2% PFA for 13 min. Subsequently, cells were blocked, then incubated for 1 h at room temperature with the primary antibody for ATP5B (Abcam; ab128743) or active caspase 3 (R&D Systems; AF835). After incubation with the primary antibody, cells were washed with PBS and incubated for 1 h at room temperature with the secondary antibody (ThermoFisher Scientific; A11010). […] Data were analyzed with Image J software.
Consistent with previous reports showing that inhibition of fission reduced apoptosis (8,12-14), the effect of MASM7 was evaluated upon a classic apoptotic stimulus such as staurosporine (STS) in MEFs.

[11] = tested on: cancer cells; test: Toxicity in cancer cells; settings: 15 μM, 72 h
Excerpt: as §1

[12] = tested on: MFN1/MFN2 DKO MEFs reconstituted with WT, L727A and D725A/L727A MFN2; settings: L727A and D725A/L727A MFN2 vs WT
Protocol: Evaluation of mitochondrial morphology using mitochondrial aspect ratio (Mito AR; length/width) as a readout. […] Mitotracker green stains mitochondria. Scale bar 20 μm. […] Quantification of Mito AR in MFN1/MFN2 DKO MEFs reconstituted with WT, L727A and D725A/L727A MFN2.
Live cell imaging. […] Images were taken with Leica SP5 inverted confocal microscope. Data were analyzed with Image J software. >200 mitochondria were measured per condition in mitochondrial aspect ratio.

[13] = tested on: MEFs; test: TMRE mitochondrial membrane potential assay in MEFs; format: cell-based; settings: 5 μM, 24 h
Protocol: Carbonyl cyanide 3-chlorophenylhydrazone (CCP) was used as a positive control (20 μM, 40 min). Following treatments, cells were stained with 400 nM TMRE (Sigma Cat. 87917) for 20 min at 37° C. Subsequently, cells were washed with once with PBS. Fluorescence intensity was detected by a M100 microplate reader (TECAN, Ex: 540 nm/Em: 579 nm).

CC(Sc1nnc(C2CC2)n1-c1ccccc1)C(=O)Nc1sc2c(c1C(N)=O)CCC2 (stereo not drawn) [MASM7]
Mitochondrial aspect ratio in WT MEFs ([1]; 1 μM, 2 h): increased mitochondrial aspect ratio
EC50 ([1]; read-out: EC50 for inducing fusion (Mito AR)): 75 nM
Basal and maximal OCR, MFN1/MFN2 DKO MEFs [2]: does not increase basal and maximal OCR
Mitochondrial membrane potential in Farage cells (TMRE) [3]: reduces mitochondrial membrane potential in a dose and time dependent manner
ATP production, WT MEFs [4]: increases ATP production
Basal and maximal oxygen consumption rate (OCR), WT MEFs [4]: increases basal and maximal oxygen consumption rate (OCR)
Caspase 3/7 activation in MEFs [5]: did not induce caspase 3/7 activation
Viability of MEFs [6]: did not reduce viability
Viability of lymphoma cells [7]: reduces viability selectively in lymphoma cells
Caspase 3 activation in Farage cells [8]: promotes caspase 3 activation in a dose and time dependent manner
ROS levels in Farage cells (CellROX) [9]: increases ROS levels
Population of MEFs positive to caspase 3 activation [10]: reduced significantly
Toxicity in the indicated cancer cells [11]: low to moderate toxicity
MASM7-induced fusion (Mito AR) with HR2 domain mutations of Mfn2 [12]: inhibits MASM7-induced fusion
Mitochondrial membrane potential in MEFs (TMRE) [13]: did not reduce viability or mitochondrial membrane potential
